{"source": "patent US7388006B2", "about": "“Non-steroidal progesting” (Bayer Schering Pharma AG, priority 2002, dated 2008)", "key": {"[1]": {"system": "prostate weight and seminal vesicle of orchidectomized rats", "assay": "Androgenic/anti-androgenic activity in vivo in orchidectomized rats (prostate weight, seminal vesicle)", "set-up": "species or system rat", "from_the_text": "The absence of androgenic as well as anti-androgenic activity in vivo was confirmed by tests performed with orchidectomized rats (change in prostate weight and in the seminal vesicle)."}, "[2]": {"target": "T1, glucocorticoid receptor (GR) (Homo sapiens, UniProt P04150)", "T1 sequence (P04150 1-777)": "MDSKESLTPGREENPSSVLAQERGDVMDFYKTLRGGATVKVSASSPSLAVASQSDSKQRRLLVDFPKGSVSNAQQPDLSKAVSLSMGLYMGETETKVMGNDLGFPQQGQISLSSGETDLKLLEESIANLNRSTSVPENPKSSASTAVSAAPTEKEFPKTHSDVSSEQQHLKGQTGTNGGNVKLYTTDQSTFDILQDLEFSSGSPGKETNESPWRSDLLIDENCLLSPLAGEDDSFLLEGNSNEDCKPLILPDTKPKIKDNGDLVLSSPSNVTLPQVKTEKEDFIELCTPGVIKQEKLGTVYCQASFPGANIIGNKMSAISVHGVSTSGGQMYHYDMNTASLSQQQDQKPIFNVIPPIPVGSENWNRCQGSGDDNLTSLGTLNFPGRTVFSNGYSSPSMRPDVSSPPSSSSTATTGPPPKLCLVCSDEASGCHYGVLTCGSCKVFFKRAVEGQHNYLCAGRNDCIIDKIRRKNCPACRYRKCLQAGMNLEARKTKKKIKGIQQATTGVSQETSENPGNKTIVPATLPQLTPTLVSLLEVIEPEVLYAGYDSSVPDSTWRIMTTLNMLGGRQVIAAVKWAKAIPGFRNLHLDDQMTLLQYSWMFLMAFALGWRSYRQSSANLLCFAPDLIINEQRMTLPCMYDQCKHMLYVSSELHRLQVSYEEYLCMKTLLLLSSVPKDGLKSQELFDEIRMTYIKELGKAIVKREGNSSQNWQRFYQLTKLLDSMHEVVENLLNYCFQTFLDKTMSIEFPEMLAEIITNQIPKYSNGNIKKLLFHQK", "assay": "Affinity for the glucocorticoid receptor", "format": "binding"}, "[3]": {"target": "T2, estrogen receptor-α (ERα) (Homo sapiens, UniProt P03372)", "T2 sequence (P03372 1-595)": "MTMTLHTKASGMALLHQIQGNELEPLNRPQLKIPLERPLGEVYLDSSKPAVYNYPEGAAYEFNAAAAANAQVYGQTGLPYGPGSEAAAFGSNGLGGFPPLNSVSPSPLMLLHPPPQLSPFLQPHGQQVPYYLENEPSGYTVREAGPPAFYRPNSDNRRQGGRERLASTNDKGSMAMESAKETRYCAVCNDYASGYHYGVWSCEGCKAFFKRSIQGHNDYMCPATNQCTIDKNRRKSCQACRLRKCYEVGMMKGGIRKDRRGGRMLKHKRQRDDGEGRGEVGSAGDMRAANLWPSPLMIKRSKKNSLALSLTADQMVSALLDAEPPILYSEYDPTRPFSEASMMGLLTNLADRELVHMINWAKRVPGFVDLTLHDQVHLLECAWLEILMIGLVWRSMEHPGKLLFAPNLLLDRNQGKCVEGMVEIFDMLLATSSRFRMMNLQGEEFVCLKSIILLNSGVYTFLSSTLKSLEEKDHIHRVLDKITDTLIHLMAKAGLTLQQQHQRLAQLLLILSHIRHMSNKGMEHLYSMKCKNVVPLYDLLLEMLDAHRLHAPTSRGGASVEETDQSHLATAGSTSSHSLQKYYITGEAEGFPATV", "assay": "Binding to the estrogen receptor-α in vitro"}, "[4]": {"system": "ovulation in adult female rats", "assay": "In vivo test on progestogenic activity - ovulation inhibition (rat)", "conditions": "for Ovulation inhibition, result in words / Ovulation inhibition, factor compared to R5020: rat; for Ovulation inhibition, factor compared to R5020: potency relative to R5020", "description": "Before the treatment is started, two […] cycles of female rats (weight: 190 to 210 g) were monitored. Only animals having a regular 4 day-cycle are used for the subsequent test. Starting in the metoestrus, the test compound is administered for 4 days (day 1 to 4) and the cycle is controlled thereafter.\nFor subcutaneous application, the test compounds are dissolved in benzyl benzoate/castor oil (1+9 v/v) and the daily dose is administered in a volume of 1 ml/kg body weight.\nFor peroral application, the test compounds are suspended in a carrier liquid (85 mg Myrj^R in 100 ml 0.9% w/v NaCl solution) and the daily dose is administered in a volume of 2 ml/kg body weight.\nOn day 4, after the application of the test compound, those animals having estrus or metoestrus are ovariectomized under ether anesthesia on one side. Preparations of the tubes are prepared and they are investigated for ova by means of microscope. On day 5 all animals (intact and partly ovariectomized) are killed with carbon dioxide, the tubes are preserved and analyzed in the same way. It is then determined, as a percentage, in how many animals ovulation was inhibited. […] Accordingly, this compound is to be regarded as having strong, progestational activity."}, "thymus weight": {"system": "thymus weight", "assay": "Glucocorticoid/anti-glucocorticoid activity in vivo (changes in thymus weight)"}}}
{"smiles": "O=C1OCc2cc(NC(=O)C(O)(CC3(c4cc(C(F)(F)F)ccc4F)CC3)C(F)(F)F)ccc21", "note": "(single isomer, unassigned; (+)) [((+)-1), (+)-5-{2-hydroxy-3-[1-(2-fluoro-5-trifluoromethylphenyl)-cyclopropyl]-2-trifluoromethyl-propionylamino}-phthalide]", "values": [{"measurement": "Androgenic and anti-androgenic activity in vivo", "setting": "[1]", "value": "no androgenic as well as no anti-androgenic activity in vivo"}, {"measurement": "Affinity for the glucocorticoid receptor (GR)", "setting": "[2]", "value": "very high affinity"}, {"measurement": "Affinity for the estrogen receptor-α (ERα)", "setting": "[3]", "value": "negligible affinity"}, {"measurement": "inhibition at 0.01 mg/kg", "setting": "[4]; Rattus norvegicus, dose 10 μg/kg, days 1 to 4, female rats", "value": 0, "unit": "%"}, {"measurement": "inhibition at 0.03 mg/kg", "setting": "[4]; Rattus norvegicus, dose 30 μg/kg, days 1 to 4, female rats", "value": 14, "unit": "%"}, {"measurement": "inhibition at 0.1 mg/kg", "setting": "[4]; Rattus norvegicus, dose 100 μg/kg, days 1 to 4, female rats", "value": 100, "unit": "%"}, {"measurement": "Ovulation inhibition, result in words", "setting": "[4]", "value": "at least as potent as the standard progestin"}, {"measurement": "Ovulation inhibition, factor compared to R5020", "setting": "[4]; listed as ((+)-l)", "value": "1 to 2"}, {"measurement": "Ovulation inhibition, factor compared to R5020", "setting": "[4]; listed as ((+)−1)", "value": "1-2"}, {"measurement": "Ovulation inhibition, result in words", "setting": "[4]; listed as ((+)-l)", "value": "efficiently inhibited ovulation"}, {"measurement": "Glucocorticoid and anti-glucocorticoid activity in vivo", "setting": "thymus weight", "value": "does not seem to exhibit any glucocorticoid or any anti-glucocorticoid activity in vivo"}]}
